# In article PMC11959756, “PepH3-modified nanocarriers for delivery of therapeutics across the blood-brain barrier” (Fluids and Barriers of the CNS, 2025):
# Legend:
# [1] = tested on: primary rat brain endothelial cells (RBEC); experiment: Cellular uptake of PepH3 peptide in living RBECs (confocal microscopy, image analysis); assay type: cell-based; details: Quasar 570 labelled PepH3 100 nM, 37 °C, confocal image analysis normalized to nuclear intensity, n=10-25
# Protocol: To visualize the cellular uptake of PepH3 peptide alone, the cells were cultured in Matrigel coated glass bottom culture dishes (diameter: 3.5 cm, Greiner Bio-One, Germany). Confluent monolayers were incubated with the peptide solution (100 nM) diluted in the culture medium of RBEC at 37 °C for 30 min, 5–24 h. For the staining of cell nuclei, Hoechst 33342 dye (1 µg/mL, 10 min) was used. After incubation the culture medium was removed and cells were washed with Ringer-HEPES buffer (118 mM NaCl, 4.8 mM KCl, 2.5 mM CaCl2, 1.2 mM MgSO4, 5.5 mM D-glucose, 20 mM HEPES, pH 7.4) supplemented with 1% PDS. For visualization of PepH3, living cells was imaged using Leica TCS SP5 confocal laser scanning microscope (Leica Microsystems, Germany).
# [2] = tested on: primary rat brain endothelial cells (RBEC); experiment: Real-time impedance measurement of cellular toxicity on RBEC; assay type: cell-based; details: Quasar 570 labelled PepH3 1.875-120 µM, 24 h; impedance at 10 kHz; n=6-12
# Protocol: Kinetics of the effect of PepH3 peptide, PepH3-tagged and non-tagged NPs on RBEC cells was monitored by impedance measurement at 10 kHz (RTCA-SP instrument; ACEA Biosciences, USA). Impedance measurement is a label-free, real time, non- invasive method, and correlates linearly with adherence, growth, number, and viability of cells. For background measurements 50 µL cell culture medium was added to the wells, then cells were seeded at a density of 6 × 10^3 cells/well to collagen type IV (100 µg/mL) and fibronectin (25 µg/mL) coated 96-well plates with integrated gold electrodes (E-plate 96, ACEA Biosciences, USA). Cells were cultured for 4 days and monitored every 5 min until the end of experiments. At the beginning of plateau phase of growth, cells were treated with PepH3 (1.875-120 µM) and PepH3-tagged and non-tagged NPs (0.1-3.0 mg/mL) for 24 h. Cell index was defined as Rn-Rb at each time point of measurement, where Rn is the cell-electrode impedance of the well when it contains cells and Rb is the background impedance of the well with the medium alone.
# [3] = cited from earlier work
# Excerpt: There was a fast clearanc ...
# [4] = tested on: rat triple co-culture BBB model (RBEC, RPC, RAC); details: 10 nM, 30 min
substance,measurement,setting,value
Q-AGILKRW-NH2 [PepH3],Peptide internalization after 5 h compared to the 30 min group,[1],1.9 fold
same,Peptide internalization after 24 h compared to the 30 min group,[1],6 fold
same,Effect on impedance (viability) of RBEC cell layers,[2],good cell viability
same,"Accumulation in liver, lung and kidney in vivo",[3]; biodistribution profile compared to FC5,low accumulation
same,Brain uptake in vivo,"[3]; radiolabeled PepH3 peptide derivatives, biodistribution",high brain uptake
same,Papp of PepH3 relative to transcellular BBB marker albumin (EBA),[4],71 times
